± gives the expanded uncertainty stated by the source.
Assay: xn = mol fraction of the nth substance listed
Settings: Liquid, Vibrating tube method

CCCCCCCCCC [decane] + CCCCCCC
Settings | mass density [kg/m3]
313.16 K, 1000 kPa, x2 = 0.0531 | 713.67 ± 0.41
313.16 K, 1000 kPa, x2 = 0.2594 | 706.37 ± 0.41
313.16 K, 2000 kPa, x2 = 0.0531 | 714.44 ± 0.41
313.16 K, 2000 kPa, x2 = 0.2594 | 707.17 ± 0.42
313.16 K, 3000 kPa, x2 = 0.0531 | 715.27 ± 0.42
313.16 K, 3000 kPa, x2 = 0.2594 | 707.97 ± 0.42
313.16 K, 4000 kPa, x2 = 0.0531 | 716.08 ± 0.42
313.16 K, 4000 kPa, x2 = 0.2594 | 708.78 ± 0.43
313.16 K, 5000 kPa, x2 = 0.0531 | 716.94 ± 0.43
313.16 K, 5000 kPa, x2 = 0.2594 | 709.65 ± 0.43
313.16 K, 6000 kPa, x2 = 0.0531 | 717.67 ± 0.43
313.16 K, 6000 kPa, x2 = 0.2594 | 710.5 ± 0.44
313.16 K, 7000 kPa, x2 = 0.0531 | 718.51 ± 0.44
313.16 K, 7000 kPa, x2 = 0.2594 | 711.35 ± 0.44
313.16 K, 8000 kPa, x2 = 0.0531 | 719.34 ± 0.44
313.16 K, 8000 kPa, x2 = 0.2594 | 712.2 ± 0.44
313.16 K, 9000 kPa, x2 = 0.0531 | 720.13 ± 0.44
313.16 K, 9000 kPa, x2 = 0.2594 | 713.05 ± 0.45
313.16 K, 10000 kPa, x2 = 0.0531 | 721 ± 0.45
313.16 K, 10000 kPa, x2 = 0.2594 | 713.88 ± 0.45
313.16 K, 10990 kPa, x2 = 0.0531 | 721.8 ± 0.45
313.16 K, 10990 kPa, x2 = 0.2594 | 714.7 ± 0.46
313.16 K, 12000 kPa, x2 = 0.0531 | 722.62 ± 0.46
313.16 K, 12000 kPa, x2 = 0.2594 | 715.51 ± 0.47
313.16 K, 13000 kPa, x2 = 0.0531 | 723.44 ± 0.46
313.16 K, 13000 kPa, x2 = 0.2594 | 716.3 ± 0.47
313.16 K, 14000 kPa, x2 = 0.0531 | 724.26 ± 0.47
313.16 K, 14000 kPa, x2 = 0.2594 | 717.1 ± 0.48
313.16 K, 15000 kPa, x2 = 0.0531 | 725.05 ± 0.47
313.16 K, 15000 kPa, x2 = 0.2594 | 717.87 ± 0.48
313.16 K, 16000 kPa, x2 = 0.0531 | 725.84 ± 0.48
313.16 K, 16000 kPa, x2 = 0.2594 | 718.64 ± 0.49
313.16 K, 17000 kPa, x2 = 0.0531 | 726.57 ± 0.49
313.16 K, 17000 kPa, x2 = 0.2594 | 719.39 ± 0.49
313.16 K, 18000 kPa, x2 = 0.0531 | 727.29 ± 0.49
313.16 K, 18000 kPa, x2 = 0.2594 | 720.16 ± 0.5
313.16 K, 19000 kPa, x2 = 0.0531 | 728.02 ± 0.5
313.16 K, 19000 kPa, x2 = 0.2594 | 720.88 ± 0.5
313.16 K, 20000 kPa, x2 = 0.0531 | 728.71 ± 0.5
313.16 K, 20000 kPa, x2 = 0.2594 | 721.61 ± 0.51
313.16 K, 21000 kPa, x2 = 0.0531 | 729.39 ± 0.51
313.16 K, 21000 kPa, x2 = 0.2594 | 722.32 ± 0.52
313.16 K, 22000 kPa, x2 = 0.0531 | 730.07 ± 0.51
313.16 K, 22000 kPa, x2 = 0.2594 | 723.02 ± 0.52
313.16 K, 23000 kPa, x2 = 0.0531 | 730.67 ± 0.52
313.16 K, 23000 kPa, x2 = 0.2594 | 723.68 ± 0.53
313.16 K, 24000 kPa, x2 = 0.0531 | 731.27 ± 0.53
313.16 K, 24000 kPa, x2 = 0.2594 | 724.32 ± 0.54
313.16 K, 25000 kPa, x2 = 0.0531 | 731.84 ± 0.53
313.16 K, 25000 kPa, x2 = 0.2594 | 724.92 ± 0.54
313.17 K, 1000 kPa, x2 = 0.952 | 671.13 ± 0.43
313.17 K, 2000 kPa, x2 = 0.952 | 672.16 ± 0.44
313.17 K, 3000 kPa, x2 = 0.952 | 673.18 ± 0.44
313.17 K, 4000 kPa, x2 = 0.952 | 674.17 ± 0.45
313.17 K, 5000 kPa, x2 = 0.952 | 675.18 ± 0.45
313.17 K, 6000 kPa, x2 = 0.952 | 676.18 ± 0.46
313.17 K, 7000 kPa, x2 = 0.952 | 677.15 ± 0.46
313.17 K, 8000 kPa, x2 = 0.952 | 678.12 ± 0.47
313.17 K, 9000 kPa, x2 = 0.952 | 679.08 ± 0.48
313.17 K, 10000 kPa, x2 = 0.952 | 680.03 ± 0.48
313.17 K, 10990 kPa, x2 = 0.952 | 680.95 ± 0.49
313.17 K, 12000 kPa, x2 = 0.952 | 681.86 ± 0.5
313.17 K, 13000 kPa, x2 = 0.952 | 682.77 ± 0.5
313.17 K, 14000 kPa, x2 = 0.952 | 683.65 ± 0.51
313.17 K, 15000 kPa, x2 = 0.952 | 684.52 ± 0.52
313.17 K, 16000 kPa, x2 = 0.952 | 685.39 ± 0.52
313.17 K, 17000 kPa, x2 = 0.952 | 686.24 ± 0.53
313.17 K, 18000 kPa, x2 = 0.952 | 687.08 ± 0.54
313.17 K, 19000 kPa, x2 = 0.952 | 687.9 ± 0.54
313.17 K, 20000 kPa, x2 = 0.952 | 688.71 ± 0.55
313.17 K, 21000 kPa, x2 = 0.952 | 689.52 ± 0.56
313.17 K, 22000 kPa, x2 = 0.952 | 690.29 ± 0.57
313.17 K, 23000 kPa, x2 = 0.952 | 691.05 ± 0.57
313.17 K, 24000 kPa, x2 = 0.952 | 691.82 ± 0.58
313.17 K, 25000 kPa, x2 = 0.952 | 692.57 ± 0.59
313.18 K, 1000 kPa, x2 = 0.5219 | 695.19 ± 0.42
313.18 K, 1000 kPa, x2 = 0.777 | 681.87 ± 0.43
313.18 K, 2000 kPa, x2 = 0.5219 | 696.01 ± 0.42
313.18 K, 2000 kPa, x2 = 0.777 | 682.77 ± 0.43
313.18 K, 3000 kPa, x2 = 0.5219 | 696.84 ± 0.43
313.18 K, 3000 kPa, x2 = 0.777 | 683.7 ± 0.43
313.18 K, 4000 kPa, x2 = 0.5219 | 697.74 ± 0.43
313.18 K, 4000 kPa, x2 = 0.777 | 684.64 ± 0.44
313.18 K, 5000 kPa, x2 = 0.5219 | 698.6 ± 0.44
313.18 K, 5000 kPa, x2 = 0.777 | 685.58 ± 0.45
313.18 K, 6000 kPa, x2 = 0.5219 | 699.5 ± 0.44
313.18 K, 6000 kPa, x2 = 0.777 | 686.52 ± 0.45
313.18 K, 7000 kPa, x2 = 0.5219 | 700.44 ± 0.45
313.18 K, 7000 kPa, x2 = 0.777 | 687.47 ± 0.46
313.18 K, 8000 kPa, x2 = 0.5219 | 701.28 ± 0.45
313.18 K, 8000 kPa, x2 = 0.777 | 688.4 ± 0.46
313.18 K, 9000 kPa, x2 = 0.5219 | 702.17 ± 0.46
313.18 K, 9000 kPa, x2 = 0.777 | 689.32 ± 0.47

— the NIST ThermoML archive (doi:10.1016/j.jct.2011.08.016)
